According to patent US11173124B2, “Oral delivery of GLP-1 peptide analogs” (MEDIMMUNE LIMITED, priority 2017, dated 2021):
Converted amounts (≈) assume the structure as drawn. Each block holds one compound with its values, some of them ahead of it. Starred links: 1 amine or outer side, 2 acyl side, 3 side chain; linkers in the order of their positions; H or OH if unused. Non-standard residues stand in square brackets, D forms with d. Residues, ends and D or L forms follow the SMILES beside them. Groups on a side chain read outwards from the residue. *: point of attachment. γGlu = O=C(O)[C@H](CCC(=O)[*:2])N[*:1]; αMeF = C[C@](N)(Cc1ccccc1)C(=O)O; αMeK = C[C@](N)(CCCCN)C(=O)O; Lauroyl = CCCCCCCCCCCC(=O)*; αMeS = C[C@](N)(CO)C(=O)O; AEEA = NCCOCCOCC(=O)O; Aib = CC(C)(N)C(=O)O

Key:
physchem = experiment: physchem
Description: A known amount of the permeation enhancer, the peptide, or both were combined with increasing amounts of buffer until the permeation enhancer and/or the peptide were completely solubilized.

GLP-1 receptor = target: T1, GLP-1 receptor (Rattus norvegicus, UniProt P32301); experiment: cAMP assay, INSle assay as described in WO 2016/198544; assay type: cell-based; conditions: in vitro potency at the GLP-1 receptor
T1 construct: endogenous in cells; host or cells: INS-1E rat insulinoma cells (printed as 'INSle')
T1 sequence (P32301 22-463): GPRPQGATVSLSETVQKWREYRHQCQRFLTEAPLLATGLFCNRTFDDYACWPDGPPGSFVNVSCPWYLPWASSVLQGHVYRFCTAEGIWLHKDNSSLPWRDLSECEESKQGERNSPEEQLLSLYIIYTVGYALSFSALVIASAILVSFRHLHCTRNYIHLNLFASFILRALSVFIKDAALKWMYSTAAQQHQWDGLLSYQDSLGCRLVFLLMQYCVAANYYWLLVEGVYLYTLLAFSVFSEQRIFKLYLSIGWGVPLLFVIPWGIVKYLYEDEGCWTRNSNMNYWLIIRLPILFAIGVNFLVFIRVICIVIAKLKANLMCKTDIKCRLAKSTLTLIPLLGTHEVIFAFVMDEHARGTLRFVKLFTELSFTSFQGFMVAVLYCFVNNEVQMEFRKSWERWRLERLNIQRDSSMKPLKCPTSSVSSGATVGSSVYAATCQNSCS
Description: The biological activity of a GLP-1 peptide analog can be evaluated, for example, by assessing the ability of the peptide to activate a receptor (e.g., a GLP-1 receptor). Peptide activation of such receptors results in downstream accumulation of cAMP second messenger which can be measured in a functional activity assay.

[1] = Rat intraduodenal study, MEDI7219 with new gallate derivatives and other enhancers (Example 8); assay type: in vivo
Protocol: The next rat ID administration study was performed to assess the oral bioavailability and pharmacokinetics of MEDI7219 (SEQ ID NO:2) formulations containing new gallate derivatives, sodium 2-(3,4,5-trihydroxybenzoyloxy) acetate and butanoate, sodium cholate with propyl gallate, sodium caprate with propyl gallate, sodium caprate with propyl gallate and citric acid, and sucrose monododecanoate.

[2] = Third rat ID infusion study, stabilized peptides vs semaglutide (Example 6); conditions: in vivo
Protocol: The third rat ID infusion study was performed to compare bioavailability of stabilized peptides MEDI7219 (SEQ ID NO:2) and SEQ ID NO:6 with that of semaglutide, H-His-Aib-[…]AEEAc-AEEAc-γ-Glu-17-carboxyheptadecanoyl)-[…]OH (SEQ ID NO:11), (Novo Nordisk), an un-stabilized GLP-1 peptide analog, that only has Aib in its sequence for protection from circulating DPP-IV peptidases, (Table 7 and FIG. 2B).

[3] = Canine study, MEDI7219 tablets in acid-resistant capsules (Example 13); assay type: in vivo
Protocol: The formulations tested in this study contained the MEDI7219 (SEQ ID NO:2) peptide, whereas the SEQ ID NO:6 peptide was used in tablet formulations for the previous canine study in Example 12. Tablets were placed in acid-resistant capsules (one tablet/capsule) prior to dosing. […] (Table 20). This formulation contained 0.1 mg/kg MEDI7219 (SEQ ID NO:2) peptide and 300 mg total permeation enhancer (PE) consisting of a 1:2 ratio of sodium chenodeoxycholate to propyl gallate. This ratio worked better compared to a 2:1 ratio of these permeation enhancers (Group 9, Table 20). This study also confirmed the utility of Tris base as a pH stabilizer.

Caco-2 cells = experiment: Caco-2 study, Permeability (%) of lipidated peptides (Example 3); assay type: in vitro ADME, human; conditions: 0.1 mg/mL peptide
Description: The Caco-2 cell line is a continuous cell line of heterogeneous human epithelial colorectal adenocarcinoma cells, which when cultured under specific conditions, become differentiated and polarized such that their phenotype, morphologically and functionally, resembles the enterocytes lining the small intestine. Caco-2 cells express tight junctions, microvilli, and a number of enzymes and transporters that are characteristic of such enterocytes. Caco-2 cells are most commonly used as a tight junction monolayer that provides a physical and biochemical barrier to the passage of drugs and thus serves as an in vitro model of the human small intestinal mucosa to predict the absorption of orally administered drugs. Caco-2 permeability assays were performed by Cyprotex US, LLC (MA, USA) to assess the efficacy of different permeation enhancers. Caco-2 cells were grown on Transwell filters until a transepithelial electric resistance of ˜1000 ohms/cm^2 was achieved. The cells were incubated for three hours with media containing test samples on the apical (top) side of the cell layer, and with blank media on the basolateral (lower) side of the cell layer. Media from the apical and basolateral sides was collected separately after three hours and evaluated for the amount of peptide present on each side. Table 2 gives the permeability coefficient (Papp) of the various test samples, which include the SEQ ID NO:3 GLP-1 peptide in the presence of different excipients.
A following Caco-2 study was performed to evaluate the permeability of different peptides in the presence of various permeation enhancers. Permeability (%) was calculated by dividing the cumulative amount of molecules transported with the original loading amount. Concentrations of peptides in starting sample and apical and basal solutions after incubation for pre-determined periods were analyzed by HPLC. Sodium chenodeoxycholate at 25 mg/mL effected the highest permeability of each tested peptide (Table 4).

solubility (physchem; pH 5, aqueous buffer, thermodynamic from solid): < 10 mg/mL
solubility (physchem; pH 5.5): < 10 mg/mL
solubility (physchem; pH 6, aqueous buffer, thermodynamic from solid): 75 mg/mL (≈ 17.2 mM)
solubility (physchem; pH 7): 150 mg/mL (≈ 34.5 mM)
solubility (physchem; pH 7.5): 180 mg/mL (≈ 41.4 mM)
solubility as a function of pH (in words) (physchem; pH 7.5): increased in the range of pH 7.0 to 9.0
solubility (physchem; pH 8): 200 mg/mL (≈ 45.9 mM)
solubility (physchem; pH 9): > 200 mg/mL
EC50 (GLP-1 receptor): ~0.116 nM
Bioavailability F (%) ([1]; ID, 1 mg/kg, Group 6: 12.5 mg/mL Sodium Cholate, 25 mg/mL PG (25 + 50 mg/kg)): no bioavailability
Bioavailability F (%) ([1]; ID, 1 mg/kg, Group 7: 12.5 mg/mL Sodium Caprate, 25 mg/mL PG (25 + 50 mg/kg)): ~0.6%
Bioavailability F (%) ([1]; ID, 1 mg/kg, Group 8: 12.5 mg/mL Sodium Caprate, 25 mg/mL PG, 10 mg/mL Citric Acid): 0 (NA) %
exposure ([1]; ID, addition of citric acid to sodium caprate and propyl gallate): below level of quantification
Bioavailability F (%) ([1]; IV, 0.01 mg/kg, Group 1 control in 50 mM Tris, 150 mM Mannitol, 0.02% Polysorbate 80, pH 8.5): 100%
half-life [2]: 624 min
AUC ([2]; iv, 0.01 mg/kg): 1590 ng·h/mL
Cmax ([2]; iv, 0.01 mg/kg): 264 ng/mL
F ([2]; iv, 0.01 mg/kg): 100%
half-life ([2]; iv, 0.01 mg/kg): 1020 min
F ([3]; Intravenous, 0.01 mg/kg, 0.1 mg/mL in 50 mM Tris, 150 mM Mannitol, 0.02% Polysorbate 80, pH8.0): 100%
F ([3]; Oral tablet in capsule, Group 8: 1 mg peptide, 100 mg Na CDC, 200 mg PG): 10.7%
F ([3]; Oral tablet in capsule, Group 9: 1 mg peptide, 200 mg Na CDC, 100 mg PG): 5.0%
F ([3]; Oral tablet in capsule, Group 12: 1 mg peptide, 33.3 mg Na CDC, 16.6 mg PG (NO TRIS)): 0%
Structure (SMILES): CCCCCCCCCCCC(=O)N[C@@H](CCC(=O)NCCOCCOCC(=O)NCCOCCOCC(=O)NCCCC[C@H](NC(=O)[C@H](C)NC(=O)[C@@H](NC(=O)[C@](C)(Cc1ccccc1)NC(=O)[C@H](CCC(=O)O)NC(=O)[C@](C)(CCCCN)NC(=O)[C@H](C)NC(=O)[C@H](C)NC(=O)[C@H](CCC(=O)O)NC(=O)CNC(=O)[C@H](CCC(=O)O)NC(=O)[C@H](CC(C)C)NC(=O)[C@H](CCCCNC(=O)COCCOCCNC(=O)COCCOCCNC(=O)CC[C@H](NC(=O)CCCCCCCCCCC)C(=O)O)NC(=O)[C@H](CO)NC(=O)[C@](C)(CO)NC(=O)[C@@H](NC(=O)[C@H](CC(=O)O)NC(=O)[C@H](CO)NC(=O)[C@@H](NC(=O)[C@](C)(Cc1ccccc1)NC(=O)[C@H](CO)NC(=O)CNC(=O)[C@H](CCC(=O)O)NC(=O)C(C)(C)NC(=O)[C@@H](N)Cc1c[nH]cn1)[C@@H](C)O)C(C)C)[C@@H](C)CC)C(=O)N[C@H](C(=O)N[C@H](C(=O)N[C@@H](CCC(=O)O)C(=O)NCC(=O)NCC(N)=O)C(C)C)C(C)C)C(=O)O [MEDI7219, Free-H-[AIB]-EGS-[αMePhe]-TSDV-[αMeSer]-SK[(PEG2)2-γE-Lauroyl]-LEGEAA-[αMeLys]-E-[αMePhe]-IAK[(PEG2)2-γE-Lauroyl]-VVEGG-amide] (H-H[Aib]EGS[αMeF]TSDV[αMeS]SK([AEEA-AEEA-γGlu-Lauroyl])LEGEAA[αMeK]E[αMeF]IAK([AEEA-AEEA-γGlu-Lauroyl])VVEGG-NH2)
F [2]: significantly higher absolute bioavailability via ID route than semaglutide

Permeability (%) (Caco-2 cells; 5.0 mg/mL Chitosan): 0%
Permeability (%) (Caco-2 cells; 5.0 mg/mL Octyl β-D-glucopyranoside): 0%
Permeability (%) (Caco-2 cells; 5.0 mg/mL Sodium Chenodeoxycholate): 1.7%
Permeability (%) (Caco-2 cells; 5.0 mg/mL Tri-Me-Chitosan): 0%
Permeability (%) (Caco-2 cells; 25 mg/mL Chitosan): 0%
Permeability (%) (Caco-2 cells; 25 mg/mL Octyl β-D-glucopyranoside): 2.0%
Permeability (%) (Caco-2 cells; 25 mg/mL Sodium Chenodeoxycholate): 12.6%
Permeability (%) (Caco-2 cells; 25 mg/mL Tri-Me-Chitosan): 0%
Permeability (%) (Caco-2 cells; no enhancer): 0%
Structure (SMILES): CC[C@H](C)[C@H](NC(=O)C(C)(Cc1ccccc1)NC(=O)[C@H](CCC(=O)O)NC(=O)[C@H](CCCCNC(=O)COCCOCCNC(=O)COCCOCCNC(=O)CC[C@H](NC(=O)CCCCCCCCCCCCCCCCC(=O)O)C(=O)O)NC(=O)[C@H](C)NC(=O)[C@H](C)NC(=O)[C@H](CCC(=O)O)NC(=O)CNC(=O)[C@H](CCC(=O)O)NC(=O)[C@H](CC(C)C)NC(=O)C(C)(Cc1ccccc1)NC(=O)[C@H](CO)NC(=O)C(C)(CO)NC(=O)[C@@H](NC(=O)[C@H](CC(=O)O)NC(=O)[C@H](CO)NC(=O)[C@@H](NC(=O)C(C)(Cc1ccccc1)NC(=O)[C@H](CO)NC(=O)CNC(=O)[C@H](CCC(=O)O)NC(=O)C(C)(C)NC(=O)[C@@H](N)Cc1c[nH]cn1)[C@@H](C)O)C(C)C)C(=O)N[C@@H](C)C(=O)NC(C)(Cc1ccccc1)C(=O)N[C@H](C(=O)N[C@H](C(=O)NC(C)(CCCCN)C(=O)NCC(=O)NCC(N)=O)C(C)C)C(C)C (stereo partly drawn) [SEQ ID NO: 3, Free-H-[AIB]-EGS-[αMePhe]-TSDV-[αMeSer]-S-[αMePhe]-LEGEAAK[(PEG2)2-γE-Stearate]-E-[αMePhe]-IA-[αMePhe]-VV-[αMeLys]-GG-amide]
